Where “and” joins values, the source holds several entries; their conditions need not be identical. Identical values can stand only once.
Experiments:
[1] = test system: Rattus norvegicus; assay: Effect on the Cholesterol fed rats for total cholesterol level in rats at the dose of 0.3 mg/kg by Chroinc screen test; type: functional
[2] = test system: Rattus norvegicus; assay: Evaluated for %change in Normal, Chow fed rats for total cholesterol plasma level in rats at the dose of 3 mg/kg; type: functional
[3] = test system: Rattus norvegicus; assay: Evaluated for %change in cholesterol fed rats for non-HDL-C at the dose of 0.01 mg/kg determined by Chronic screen test; type: functional
[4] = test system: Rattus norvegicus; assay: Effect on the plasma Cholesterol level in rats at the dose of 0.3 mg/kg by Acute screen test; type: functional, organism-based; design: dose 0.3 mg/kg
[5] = test system: Rattus norvegicus; assay: Effect on the plasma cholesterol level in rats at the dose of 1 mg/kg by Acute screen test; type: functional, organism-based; design: dose 1 mg/kg
[6] = test system: Rattus norvegicus; assay: Evaluated for %change in cholesterol fed rats at the dose of 0.3 mg/kg determined by Acute screen test; type: functional
[7] = test system: Rattus norvegicus; assay: Evaluated for %change in cholesterol fed rats for HDL-C at the dose of 0.1 mg/kg determined by Chronic screen test; type: functional
[8] = test system: Rattus norvegicus; assay: Effect on the Cholesterol fed rats for total cholesterol level in rats at the dose of 1 mg/kg by Chroinc screen test; type: functional; note: unit not given here
[9] = test system: Rattus norvegicus; assay: Evaluated for %change in cholesterol fed rats for HDL-C at the dose of 0.3 mg/kg determined by Chronic screen test; type: functional
[10] = test system: Rattus norvegicus; assay: Effect on the Cholesterol fed rats for non-HDL-C in rats at the dose of 0.001 mg/kg by Chroinc screen test; type: functional
[11] = test system: Rattus norvegicus; assay: Evaluated for %change in cholesterol fed rats for HDL-C at the dose of 0.01 mg/kg determined by Chronic screen test; type: functional
[12] = test system: Rattus norvegicus; assay: Effect on the Cholesterol fed rats for HDL-C in rats at the dose of 1 mg/kg by Chroinc screen test; type: functional; note: unit not given here
[13] = test system: Rattus norvegicus; assay: Effect on the Cholesterol fed rats for non-HDL-C in rats at the dose of 10 mg/kg by Chroinc screen test; type: functional
[14] = test system: Rattus norvegicus; assay: Evaluated for %change in cholesterol fed rats for non-HDL-C at the dose of 3 mg/kg determined by Chronic screen test; type: functional
[15] = test system: Oryctolagus cuniculus; assay: Effect on Rabbits (Fed a Cholesterol-Free Casein Diet ) for plasma cholesterol at the dose of 1 mg/kg (pretreatment); type: functional, organism-based; design: dose 1 mg/kg
[16] = test system: Rattus norvegicus; assay: Effect on the Cholesterol fed rats for total cholesterol level in rats at the dose of 0.1 mg/kg by Chroinc screen test; type: functional; note: unit not given here
[17] = test system: Rattus norvegicus; assay: Effect on the Cholesterol fed rats for total cholesterol level in rats at the dose of 0.001 mg/kg by Chroinc screen test; type: functional
[18] = test system: Rattus norvegicus; assay: Effect on the Cholesterol fed rats for non-HDL-C in rats at the dose of 0.3 mg/kg by Chroinc screen test; type: functional; note: unit not given here
[19] = test system: Rattus norvegicus; assay: Effect on the Cholesterol fed rats for non-HDL-C in rats at the dose of 3 mg/kg by Chroinc screen test; type: functional; note: unit not given here
[20] = test system: Rattus norvegicus; assay: Evaluated for %change in Normal, Chow fed rats for total cholesterol plasma level in rats at the dose of 30 mg/kg; type: functional
[21] = test system: Rattus norvegicus; assay: Evaluated for %change in cholesterol fed rats at the dose of 10 mg/kg determined by Acute screen test; type: functional
[22] = test system: Rattus norvegicus; assay: Evaluated for %change in cholesterol fed rats for total cholesterol at the dose of 0.01 mg/kg determined by Chronic screen test; type: functional
[23] = test system: Rattus norvegicus; assay: Effect on the plasma Cholesterol level in rats at the dose of 0.1 mg/kg by Acute screen test; type: functional, organism-based; design: dose 0.1 mg/kg
[24] = test system: Rattus norvegicus; assay: Effect on the Cholesterol fed rats for HDL-C in rats at the dose of 0.1 mg/kg by Chroinc screen test; type: functional
[25] = test system: Rattus norvegicus; assay: Evaluated for %change in cholesterol fed rats for total cholesterol at the dose of 0.1 mg/kg determined by Chronic screen test; type: functional
[26] = test system: Rattus norvegicus; assay: Evaluated for %change in cholesterol fed rats for total cholesterol at the dose of 0.03 mg/kg determined by Chronic screen test; type: functional
[27] = test system: Rattus norvegicus; assay: Effect on the Cholesterol fed rats for HDL-C in rats at the dose of 0.01 mg/kg by Chroinc screen test; type: functional
[28] = test system: Rattus norvegicus; assay: Evaluated for %change in cholesterol fed rats at the dose of 1 mg/kg determined by Acute screen test; type: functional
[29] = test system: Rattus norvegicus; assay: Evaluated for %change in cholesterol fed rats for non-HDL-C at the dose of 0.1 mg/kg determined by Chronic screen test; type: functional
[30] = test system: Rattus norvegicus; assay: Evaluated for %change in Normal, Chow fed rats for total cholesterol plasma level in rats at the dose of 10 mg/kg; type: functional
[31] = test system: Rattus norvegicus; assay: Effect on the Normal, Chow fed rats for total cholesterol plasma level in rats at the dose of 3 mg/kg; type: functional, organism-based; design: dose 3 mg/kg
[32] = test system: Rattus norvegicus; assay: Effect on the Normal, Chow fed rats for total cholesterol plasma level in rats at the dose of 30 mg/kg; type: functional, organism-based; design: dose 30 mg/kg
[33] = test system: Rattus norvegicus; assay: Evaluated for %change in cholesterol fed rats for HDL-C at the dose of 3 mg/kg determined by Chronic screen test; type: functional
[34] = test system: Rattus norvegicus; assay: Evaluated for %change in Normal, Chow fed for rats Plasma total triglyceride plasma level in rats at the dose of 3 mg/kg; type: functional
[35] = test system: Rattus norvegicus; assay: Evaluated for %change in Normal, Chow fed for rats Plasma total triglyceride plasma level in rats at the dose of 30 mg/kg; type: functional
[36] = test system: Rattus norvegicus; assay: Effect on the Cholesterol fed rats for non-HDL-C in rats at the dose of 0.01 mg/kg by Chroinc screen test; type: functional; note: unit not given here
[37] = test system: Rattus norvegicus; assay: Effect on the Cholesterol fed rats for total cholesterol level in rats at the dose of 10 mg/kg by Chroinc screen test; type: functional; note: unit not given here
[38] = test system: Oryctolagus cuniculus; assay: Effect on Rabbits (Fed a Cholesterol-Free Casein Diet ) for plasma cholesterol at the dose of 10 mg/kg (pretreatment); type: functional, organism-based; design: dose 10 mg/kg
[39] = test system: Rattus norvegicus; assay: Evaluated for %change in cholesterol fed rats for total cholesterol at the dose of 0.3 mg/kg determined by Chronic screen test; type: functional
[40] = test system: Oryctolagus cuniculus; assay: Effect on Rabbits (Fed a Cholesterol-Free Casein Diet ) for plasma cholesterol at the dose of 3 mg/kg (pretreatment); type: functional, organism-based; design: dose 3 mg/kg
[41] = test system: Rattus norvegicus; assay: Evaluated for %change in cholesterol fed rats for total cholesterol at the dose of 3 mg/kg determined by Chronic screen test; type: functional
[42] = test system: Rattus norvegicus; assay: Effect on the Cholesterol fed rats for non-HDL-C in rats at the dose of 1 mg/kg by Chroinc screen test; type: functional
[43] = test system: Rattus norvegicus; assay: Evaluated for %change in cholesterol fed rats for HDL-C at the dose of 0.001 mg/kg determined by Chronic screen test; type: functional
[44] = test system: Rattus norvegicus; assay: Evaluated for %change in cholesterol fed rats for HDL-C at the dose of 1 mg/kg determined by Chronic screen test; type: functional
[45] = test system: Rattus norvegicus; assay: Effect on the Cholesterol fed rats for HDL-C in rats at the dose of 3 mg/kg by Chroinc screen test; type: functional
[46] = test system: Rattus norvegicus; assay: Evaluated for %change in cholesterol fed rats for total cholesterol at the dose of 10 mg/kg determined by Chronic screen test; type: functional
[47] = test system: Rattus norvegicus; assay: Evaluated for %change in cholesterol fed rats for non-HDL-C at the dose of 10 mg/kg determined by Chronic screen test; type: functional
[48] = test system: Rattus norvegicus; assay: Evaluated for %change in cholesterol fed rats for non-HDL-C at the dose of 0.001 mg/kg determined by Chronic screen test; type: functional
[49] = test system: Rattus norvegicus; assay: Effect on the plasma cholesterol level in rats at the dose of 3 mg/kg by Acute screen test; type: functional, organism-based; design: dose 3 mg/kg
[50] = test system: Rattus norvegicus; assay: Effect on the Normal, Chow fed rats for Plasma total triglyceride level in rats at the dose of 10 mg/kg; type: functional, organism-based; design: dose 10 mg/kg

SMILES: CC(C)c1cc(C(C)C)c(CC(=O)NS(=O)(=O)Oc2c(C(C)C)cccc2C(C)C)c(C(C)C)c1 [AVASIMIBE]
- TC [1]: 90
- Change [2]: -16%
- Change [3]: 17%
- Plasma cholesterol [4]: 81 mg/dL
- Plasma cholesterol [5]: 72 mg/dL
- Change [6]: -56%
- Change [7]: 17% and 7%
- TC [8]: 86
- Change [9]: 42%
- Non-HDL-C [10]: 535
- Change [11]: -12%
- HDL-C [12]: 25
- Non-HDL-C [13]: 33
- Change [14]: -72%
- Plasma cholesterol [15]: 215 mg/dL
- TC [16]: 131 and 323
- TC [17]: 551
- Non-HDL-C [18]: 70
- Non-HDL-C [19]: 59
- Change [20]: -30%
- Change [21]: -72%
- Change [22]: 16%
- Plasma cholesterol [23]: 124 mg/dL
- HDL-C [24]: 16 and 18
- Change [25]: -41% and -40%
- Change [26]: -38%
- HDL-C [27]: 15
- Change [28]: -60%
- Change [29]: -45% and -41%
- Change [30]: -25%
- Plasma TC [31]: 49 mg/dL
- Plasma TC [32]: 41 mg/dL
- Change [33]: 140%
- Change [34]: -44%
- Change [35]: -66%
- Non-HDL-C [36]: 604
- TC [37]: 69
- Plasma cholesterol [38]: 209 mg/dL
- Change [39]: -60%
- Plasma cholesterol [40]: 250 mg/dL
- Change [41]: -59%
- Non-HDL-C [42]: 61
- Change [43]: -3%
- Change [44]: 76%
- HDL-C [45]: 33
- Change [46]: -69%
- Change [47]: -84%
- Change [48]: 3%
- Plasma cholesterol [49]: 66 mg/dL
- Plasma TG [50]: 75 mg/dL

Reference: ChEMBL document CHEMBL1129601, “Inhibitors of acyl-CoA: cholesterol O-acyl transferase (ACAT) as hypocholesterolemic agents. CI-1011: an acyl sulfamate with unique cholesterol-lowering activity in animals fed noncholesterol-supplemented diets” (J Med Chem, 1996)
